test system: CC1(C)SC2C(NC(=O)C(C(=O)OC3CCC4C5CCC6=CC(=O)CCC6C5CCC34C)c3ccccc3)C(=O)N2C1C(=O)O; test: purified protein, by the assay type; details: other: conjugate; type C β-lactamase P99

Q: For “type C β-lactamase from Enterobacter cloacae P99 (Enterobacter cloacae)”, which Km is on record?
A: 0.074 µM

Q: And the kcat?
A: 0.25 s⁻¹

test system: O=C(Cc1cccs1)N[C@@H]1C(=O)N2C(C(=O)O)=C(/C=C/c3ccc([N+](=O)[O-])cc3[N+](=O)[O-])CS[C@H]12; test: purified protein, by the assay type; details: other: reporter substrate; type C β-lactamase P99

Q: With “type C β-lactamase from Enterobacter cloacae P99 (Enterobacter cloacae)” as the molecule, how does the Km read?
A: 25 µM

Q: What about the kcat of the same molecule?
A: 780 s⁻¹

test system: CC(=O)C1CCC2C3CCC4=CC(=O)CCC4(C)C3C(OC(=O)c3ccc(-c4noc(C)c4C(=O)NC4C(=O)N5C4SC(C)(C)C5C(=O)O)cc3)CC12C; test: purified protein, by the assay type; details: other: conjugate; type C β-lactamase P99

Q: For “type C β-lactamase from Enterobacter cloacae P99 (Enterobacter cloacae)”, which Km is on record?
A: 0.0017 µM

Q: What about the kcat of the same molecule?
A: 0.01 s⁻¹

biological target: T1, penicillin detector of the Beta-Star® Test (Bacillus licheniformis, UniProt P12287); test: Ka (apparent second-order rate constant for acyl enzyme formation), calculated using the penicillin detector of the Beta-Star Test; format: binding; details: Ka=k2/K
T1 construct: purchased UCB, Belgium (BetaSTAR kit)
T1 sequence (P12287 346-601): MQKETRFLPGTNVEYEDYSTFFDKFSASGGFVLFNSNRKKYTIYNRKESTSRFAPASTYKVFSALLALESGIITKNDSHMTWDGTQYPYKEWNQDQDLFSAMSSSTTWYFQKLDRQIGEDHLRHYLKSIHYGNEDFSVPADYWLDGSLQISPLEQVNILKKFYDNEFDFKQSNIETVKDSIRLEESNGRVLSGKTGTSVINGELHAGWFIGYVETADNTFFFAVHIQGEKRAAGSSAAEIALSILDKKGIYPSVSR
Excerpt: (§1) The particular mode of conjugation claimed in the present invention guarantees to maintain kinetic parameters (Km, Ki, kcat and Ka=k2/K, where Km is the enzyme Michaelis-Menten constant, Ki is the inhibitor-enzyme complex dissociation constant, kcat the catalytic constant and Ka the apparent second-order rate constant for acyl enzyme formation respectively) toward β-lactamases and penicillin detectors, which are essentially the same as those of common penicillins.
^□(Column 10): calculated using the penicillin detector of the Beta-Star® Test
The detector showing the best affinity for the progesterone benzylpenicillinate conjugate is the polypeptide included in the Beta-star® kit. This genetic engineering peptide has kept a very high affinity for benzylpenicillin but has no enzymatic activity. It is thus coupled to colored particles for allowing sensitive detection.

Q: Which Ka does the source give for `CC1(C)SC2C(NC(=O)Cc3ccc(CC(=O)OC4CCC5C6CCc7cc(O)ccc7C6CCC45C)cc3)C(=O)N2C1C(=O)O` (stereo not drawn) [Conjugate 30] here?
A: 3.8 ± 2.9 × 10^−6 L.M^−1

Q: With `CC1(C)SC2C(NC(=O)Cc3ccc(CC(=O)OC4CCC5C6CCC7=CC(=O)CCC7(C)C6CCC45C)cc3)C(=O)N2C1C(=O)O` (stereo not drawn) [Conjugate 31] as the molecule, how does the Ka read?
A: 4.1 ± 3.2 × 10^−6 L.M^−1

Q: With `CC1(C)SC2C(NC(=O)Cc3ccc(CC(=O)OC4CCC5C6CCc7cc(O)ccc7C6CCC45C)cc3)C(=O)N2C1C(=O)O` (stereo not drawn) [Conjugate 32] as the molecule, how does the Ka read?
A: 4.8 ± 3.5 × 10^−6 L.M^−1

Q: Which Ka does the source give for `CC(=O)C1CCC2C1CC(OC(C)Cc1ccc(CC(=O)NC3C(=O)N4C3SC(C)(C)C4C(=O)O)cc1)C1C3CCC(=O)C=C3CCC21` (stereo not drawn) [Conjugate 2] here?
A: 4.6 ± 3.0 × 10^−6 L.M^−1

biological target: T2, β-lactamase of Enterobacter cloacae P99 (Enterobacter cloacae, UniProt P05364); test: Ki of conjugates, calculated using the β-lactamase of Enterobacter cloacae P99; format: biochemical; details: not given
T2 construct: Class C β-lactamase as that extracted from Enterobacter cloacae P99; host or cells: Enterobacter cloacae P99 (enzyme described as extracted from this strain)
T2 sequence (P05364 21-381): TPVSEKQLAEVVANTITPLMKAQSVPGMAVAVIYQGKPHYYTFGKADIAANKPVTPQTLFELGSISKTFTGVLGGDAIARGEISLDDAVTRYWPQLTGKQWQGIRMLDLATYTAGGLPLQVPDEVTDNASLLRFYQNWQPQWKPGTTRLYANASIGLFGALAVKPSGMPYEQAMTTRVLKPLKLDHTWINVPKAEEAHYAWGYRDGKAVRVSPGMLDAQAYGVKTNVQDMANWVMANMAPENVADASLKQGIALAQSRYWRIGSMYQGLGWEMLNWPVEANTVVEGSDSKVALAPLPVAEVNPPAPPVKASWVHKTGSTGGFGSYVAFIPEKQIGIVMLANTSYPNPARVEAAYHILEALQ
Excerpt: as §1
^x(Column 9): calculated using the β-lactamase of Enterobacter cloacae P99

Q: Which Ki does the source give for `Cc1onc(-c2ccc(NC(=O)CCOC3CCC4C5CCc6cc(O)ccc6C5CCC34C)cc2)c1C(=O)NC1C(=O)N2C1SC(C)(C)C2C(=O)O` (stereo not drawn) [Conjugate 23] here?
A: 0.019 ± 0.021 µM

Q: How did the Ki turn out when `Cc1onc(-c2ccc(OCCC(=O)OC3CCC4C5CCC6=CC(=O)CCC6C5CCC34C)cc2)c1C(=O)NC1C(=O)N2C1SC(C)(C)C2C(=O)O` (stereo not drawn) [Conjugate 25] was run?
A: 0.028 ± 0.031 µM

Q: With `Cc1onc(-c2ccc(C(=O)NCCCOC3CCC4C5CCC6=CC(=O)CCC6C5CCC34C)cc2)c1C(=O)NC1C(=O)N2C1SC(C)(C)C2C(=O)O` (stereo not drawn) [Conjugate 15] as the molecule, how does the Ki read?
A: 0.028 ± 0.022 µM

Q: How did the Ki turn out when `Cc1onc(-c2ccc(NC(=O)CCOC3CCC4C5CCC6=CC(=O)CCC6(C)C5CCC34C)cc2)c1C(=O)NC1C(=O)N2C1SC(C)(C)C2C(=O)O` (stereo not drawn) [Conjugate 20] was run?
A: 0.029 ± 0.027 µM

Q: With `Cc1onc(-c2ccc(OC(=O)CCC(=O)OC3CCC4C5CCC6=CC(=O)CCC6C5CCC34C)cc2)c1C(=O)NC1C(=O)N2C1SC(C)(C)C2C(=O)O` (stereo not drawn) [Conjugate 19] as the molecule, how does the Ki read?
A: 0.021 ± 0.024 µM

Q: With `Cc1onc(-c2ccc(OCCC(=O)OC3CCC4C5CCc6cc(O)ccc6C5CCC34C)cc2)c1C(=O)NC1C(=O)N2C1SC(C)(C)C2C(=O)O` (stereo not drawn) [Conjugate 29] as the molecule, how does the Ki read?
A: 0.021 ± 0.024 µM

Q: How did the Ki turn out when `Cc1onc(-c2ccc(C(=O)OC3CCC4C5CCC6=CC(=O)CCC6C5CCC34C)cc2)c1C(=O)NC1C(=O)N2C1SC(C)(C)C2C(=O)O` (stereo not drawn) [Conjugate 5] was run?
A: 0.018 ± 0.023 µM

Q: With `CC(=O)C1CCC2C3CCC4=CC(=O)CCC4(C)C3C(OCCOc3ccc(-c4noc(C)c4C(=O)NC4C(=O)N5C4SC(C)(C)C5C(=O)O)cc3Cl)CC12C` (stereo not drawn) [Conjugate 13] as the molecule, how does the Ki read?
A: 0.02 ± 0.021 µM

Q: How did the Ki turn out when `Cc1onc(-c2ccc(C(=O)NCCCOC3CCC4C5CCc6cc(O)ccc6C5CCC34C)cc2)c1C(=O)NC1C(=O)N2C1SC(C)(C)C2C(=O)O` (stereo not drawn) [Conjugate 14] was run?
A: 0.018 ± 0.023 µM

Q: With `Cc1onc(-c2ccc(OC(=O)CCC(=O)OC3CCC4C5CCC6=CC(=O)CCC6(C)C5CCC34C)cc2)c1C(=O)NC1C(=O)N2C1SC(C)(C)C2C(=O)O` (stereo not drawn) [Conjugate 18] as the molecule, how does the Ki read?
A: 0.023 ± 0.019 µM

Q: For `CC(=O)C1CCC2C3CCC4=CC(=O)CCC4(C)C3C(OCCCNC(=O)c3ccc(-c4noc(C)c4C(=O)NC4C(=O)N5C4SC(C)(C)C5C(=O)O)cc3)CC12C` (stereo not drawn) [Conjugate 17], which Ki is on record?
A: 0.021 ± 0.024 µM

Q: `Cc1onc(-c2ccc(OCCOC3CCC4C5CCC6=CC(=O)CCC6C5CCC34C)c(Cl)c2)c1C(=O)NC1C(=O)N2C1SC(C)(C)C2C(=O)O` (stereo not drawn) [Conjugate 11] was tested. Which Ki did it give?
A: 0.012 ± 0.014 µM

Q: `CC(=O)C1CCC2C3CCC4=CC(=O)CCC4(C)C3C(OC(=O)c3ccc(-c4noc(C)c4C(=O)NC4C(=O)N5C4SC(C)(C)C5C(=O)O)cc3)CC12C` (stereo not drawn) [Conjugate 7] was tested. Which Ki did it give?
A: 0.019 ± 0.027 µM

Q: How did the Ki turn out when `Cc1onc(-c2ccc(C(=O)NCCCCC(=O)OC3CCC4C5CCC6=CC(=O)CCC6C5CCC34C)cc2)c1C(=O)NC1C(=O)N2C1SC(C)(C)C2C(=O)O` (stereo not drawn) [Conjugate 8] was run?
A: 0.023 ± 0.018 µM

Q: Which Ki does the source give for `Cc1onc(-c2ccc(C(=O)OC3CCC4C5CCc6cc(O)ccc6C5CCC34C)cc2)c1C(=O)NC1C(=O)N2C1SC(C)(C)C2C(=O)O` (stereo not drawn) [Conjugate 4] here?
A: 0.024 ± 0.026 µM

Q: For `Cc1onc(-c2ccc(OCCOC3CCC4C5CCc6cc(O)ccc6C5CCC34C)c(Cl)c2)c1C(=O)NC1C(=O)N2C1SC(C)(C)C2C(=O)O` (stereo not drawn) [Conjugate 10], which Ki is on record?
A: 0.014 ± 0.017 µM

Q: For `Cc1onc(-c2ccc(C(=O)NCCCCC(=O)OC3CCC4C5CCC6=CC(=O)CCC6(C)C5CCC34C)cc2)c1C(=O)NC1C(=O)N2C1SC(C)(C)C2C(=O)O` (stereo not drawn) [Conjugate 9], which Ki is on record?
A: 0.017 ± 0.021 µM

Q: With `CC(=O)C1CCC2C3CCC4=CC(=O)CCC4(C)C3C(OC(=O)CCOc3ccc(-c4noc(C)c4C(=O)NC4C(=O)N5C4SC(C)(C)C5C(=O)O)cc3)CC12C` (stereo not drawn) [Conjugate 28] as the molecule, how does the Ki read?
A: 0.026 ± 0.026 µM

Q: With `Cc1onc(-c2ccc(OCCOC3CCC4C5CCC6=CC(=O)CCC6(C)C5CCC34C)c(Cl)c2)c1C(=O)NC1C(=O)N2C1SC(C)(C)C2C(=O)O` (stereo not drawn) [Conjugate 12] as the molecule, how does the Ki read?
A: 0.015 ± 0.016 µM

Q: With `Cc1onc(-c2ccc(NC(=O)CCOC3CCC4C5CCC6=CC(=O)CCC6C5CCC34C)cc2)c1C(=O)NC1C(=O)N2C1SC(C)(C)C2C(=O)O` (stereo not drawn) [Conjugate 21] as the molecule, how does the Ki read?
A: 0.03 ± 0.033 µM

Q: Which Ki does the source give for `Cc1onc(-c2ccc(C(=O)OC3CCC4C5CCC6=CC(=O)CCC6(C)C5CCC34C)cc2)c1C(=O)NC1C(=O)N2C1SC(C)(C)C2C(=O)O` (stereo not drawn) [Conjugate 6] here?
A: 0.022 ± 0.019 µM

Q: For `Cc1onc(-c2ccc(C(=O)NCCCOC3CCC4C5CCC6=CC(=O)CCC6(C)C5CCC34C)cc2)c1C(=O)NC1C(=O)N2C1SC(C)(C)C2C(=O)O` (stereo not drawn) [Conjugate 16], which Ki is on record?
A: 0.026 ± 0.027 µM

Q: How did the Ki turn out when `Cc1onc(-c2ccc(OCCC(=O)OC3CCC4C5CCC6=CC(=O)CCC6(C)C5CCC34C)cc2)c1C(=O)NC1C(=O)N2C1SC(C)(C)C2C(=O)O` (stereo not drawn) [Conjugate 24] was run?
A: 0.021 ± 0.026 µM
